# Reference: PMC6941357, “An in vitro toolbox to accelerate anti-malarial drug discovery and development” (Malaria Journal, 2020)
# Like-named read-outs stand apart in the source and are kept apart here. Marks after values point to notes of the source that are not given here.
# Assays:
# [1] = Ionization constants by potentiometric titration; assay type: physicochemical; conditions: mean ± SD, n = 3 titrations; for pKa: aqueous solution (DMSO stock diluted 1:10 with water), read-out: Measured pKa
# Procedure: The autotitrator was controlled by Tiamo software (Version 1.3). pH measurements were conducted using a Metrohm LL Micro glass electrode which was calibrated on the day of use with calibration standards at pH 2, 4, 7 and 10. All reagents were standardized (directly or indirectly) against potassium hydrogen phthalate (Sigma-Aldrich, A.C.S. Acidimetric Standard). Titrant solutions were protected from carbon dioxide absorption by flushing with nitrogen before sealing or by the incorporation of a drying tube filled with self-indicating soda lime into the titration reaction vessel set-up.
# Aliquots were introduced directly into the titration vessel and diluted 1:10 with water (typical final compound concentration of 0.5 mM).
# [2] = Octanol/pH 7.4 buffer partition coefficient, shake flask; conditions: for Measured Log D7.4: shake flask, 37 °C; for logD: pH 7.4
# Summary of the method: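 Octanol stocks (3-30 mg/mL) were diluted 3- and 10-fold and shaken with equal volumes of pH 7.4 phosphate buffer (67 mM, in 43 mM NaCl) at 37 °C. Both phases were quantified by LC-MS against calibration standards. The coefficient is the mean octanol/buffer concentration ratio, with two time points confirming equilibrium.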
# human liver microsomes = assay: in vitro; conditions: for HLM CLint: microsomes
# Summary of the method: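 Compound depletion in human liver microsomes was followed by LC–MS at 2–60 min, with cofactor-free controls. First-order depletion rate constants gave in vitro CLint (µL/min/mg protein), corrected to unbound CLint using measured microsomal fu.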
# human plasma = conditions: methods UF, ED, EP or not described per compound, ref [6]–[22] of Additional file 1; cited from earlier work
# [3] = Plasma protein binding via ultracentrifugation (UC); assay type: in vitro ADME, human; conditions: pH 7.4
# Summary of the method: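 Pooled human plasma (3–4 donors) spiked and ultracentrifuged; protein-free supernate gave Cunbound, parallel tubes kept at 37 °C gave Ctotal and stability (start vs end). Samples matrix-matched 1:1 with opposite blank and quantified against a common calibration curve; fu SD by error propagation.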
# [4] = Plasma protein binding via rapid equilibrium dialysis (RED), 10% plasma; assay type: in vitro ADME, human; conditions: human, 10% pooled plasma (diluted 1:10), pH 7.4, RED, 10% plasma corrected for dilution; for fraction unbound at 6 h: 6 h dialysis; for fraction unbound at 24 h: presaturation of device and 24 h dialysis
# Procedure: Pooled human plasma (n = 3–4 donors) was obtained by centrifugation of blood (collected by the Australian Red Cross Blood Service, Melbourne, Australia or the Volunteer Blood Donor Registry, Clinical Translation Centre, Walter & Eliza Hall Institute of Medical Research, Parkville, Australia), or sourcing pooled plasma directly from commercial sources (Innovative Research Inc, MI) and stored frozen at − 80 °C.
# Plasma was diluted 1:10 with pH 7.4 phosphate buffer (prepared by mixing 0.1 M sodium dihydrogen phosphate and 0.1 M disodium hydrogen phosphate (both containing 0.04 M NaCl) to pH 7.4) and spiked with compound to achieve a total measured concentration of ~ 1000–3000 ng/mL. Diluted plasma was vortex mixed briefly and aliquots (n = 3–4) were transferred to RED (Thermo Fisher Scientific, Waltham, MA) units that were placed at 37 °C under ambient atmosphere on a plate shaker. […] At the end of the dialysis period, samples were removed from both the donor and dialysate chambers of the RED units. […] Fraction unbound values were calculated for each individual RED unit and the mean and SD calculated for n = 3–4 replicates.
# Briefly, the RED device was exposed for two 30 min periods and one overnight period to fresh solutions of compound prepared in pH 7.4 buffer at approximately 10% of the total dialysis concentration. Following the preincubations, solutions were removed from the RED device and discarded. […] Samples were removed and analysed as described above.
# For binding assessments using 10% plasma, the unbound fraction (fu) in neat plasma was calculated using the average values for Ctotal and Cunbound and Eq.
# [5] = Binding to human liver microsomes via ultracentrifugation; assay type: in vitro ADME; conditions: human, pH 7.4, 0.4 mg/mL protein, read-out: Fraction unbound, HLM
# Summary of the method: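 Unbound fraction by ultracentrifugation: Cunbound measured in protein-free supernate, Ctotal from spiked tubes held at 37 °C, sampled at start and end to check degradation. Matrix was 0.4 mg/mL human liver microsomal protein, 0.1 M phosphate pH 7.4; matrix-matched analysis against one calibration curve.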
# [6] = human, neat pooled plasma, ultracentrifugation, neat plasma, read-out: Fraction unbound, human plasma
# [7] = octanol/pH 7.4 phosphate buffered saline
# [8] = human plasma, fraction unbound, read-out: Plasma fu
Compound,Unbound CLint (human liver microsomes),HLM CLint (human liver microsomes; human),Literature fu (human plasma),pKa ([1]; basic pKa (B)),logD ([2]; octanol/pH 7.4 buffer),"fraction unbound at […] [3, 6]",fraction unbound at 6 h [4],fraction unbound at […] ([5]; liver microsomes),further results
CCN(CC)CCCNc1ccnc2cc(Cl)ccc12.Cl.Cl [AQ-13],< 10.6^c µL/min/mg,< 7^b µL/min/mg,0.45,–,–,–,–,–,Measured pKa ([1]; basic pKa (B)): 7.6 ± 0.2 (B); Measured Log D7.4 ([2]; octanol/pH 7.4 buffer): 1.30
Cc1cc(Nc2ccc(C(F)(F)F)nc2)n2nc(C(C)(F)F)nc2n1 [DSM421],< 9.09^c µL/min/mg,< 7^b µL/min/mg,–,–,–,–,–,–,Measured pKa ([1]; basic pKa (B)): no ionizations could be detected
CCNCc1cc(Nc2ccnc3cc(Cl)ccc23)ccc1O [Desethylamodiaquine],–,–,0.18,8.5 ± 0.05,1.3,0.17 ± 0.002,–,–,–
CC(C)(C)NCc1cc(C(C)(C)C)cc(-c2cnc(C(F)(F)F)c(F)c2)c1O [JPC3210],328 µL/min/mg,9.50 µL/min/mg,0.024,–,–,–,–,–,Measured pKa ([1]; acidic pKa (A)): 5.3 ± 0.04 (A); Measured Log D7.4 ([2]; octanol/pH 7.4 buffer): 5.30
CS(=O)(=O)c1ccc(-c2cnc(N)c(-c3ccc(C(F)(F)F)nc3)c2)cc1 [MMV048],–,–,–,4 ± 0.07,2.5,0.17,0.11 ± 0.007,0.61 ± 0.014,–
Cc1nc(Nc2ncc(N3CCN(C)[C@H](C)C3)c(Nc3cc(C)n(C)n3)n2)cc(C2CC2)c1F [MMV253],–,–,–,8 ± 0.03,4.42,0.067,–,0.11 ± 0.017,fraction unbound at 24 h [4]: 0.017 ± 0.0002
OC(c1cc(C(F)(F)F)nc2c(C(F)(F)F)cccc12)C1CCCCN1 (stereo not drawn) [Mefloquine],–,–,0.02,8.5 ± 0.04,2.7,0.058,–,0.05 ± 0.006,"Unbound CLint (human liver microsomes; human, 1 µM, pH 7.4): < 140^c µL/min/mg"
"CC(C)(N)CNC(=O)C[C@H]1CC[C@]2(CC1)OO[C@]1(O2)C2CC3CC(C2)CC1C3 [OZ277, Arterolane]",–,–,–,8.9 ± 0.16,2.6,0.086 ± 0.008,0.056,–,"logD [2, 7]: 2.6; fraction unbound at […] [3, 8]: 0.086; fraction unbound at […] ([5]; microsomes): 0.044 ± 0.005; Unbound CLint (human liver microsomes; human, 1 µM, pH 7.4): < 159 µL/min/mg"
CCc1nc(N)nc(N)c1OCCCOc1ccccc1CCC(=O)O.Cl [P218],< 7.95^c µL/min/mg,< 7^b µL/min/mg,–,–,–,–,–,–,Measured pKa ([1]; acidic pKa (A)): 4.9 ± 0.002; Measured pKa ([1]; basic pKa (B)): 7.3 ± 0.003; Measured Log D7.4 ([2]; octanol/pH 7.4 buffer): 0.080
CCc1nc(N)nc(N)c1-c1ccc(Cl)cc1 [Pyrimethamine],–,–,0.088,6.9 ± 0.1,2.41,0.085,0.095 ± 0.001,0.54 ± 0.097,–
N#Cc1cc(NC(=O)[C@H]2c3ccccc3C(=O)N(CC(F)(F)F)[C@@H]2c2cccnc2)ccc1F [SJ733],–,–,–,4.1 ± 0.03,3.9,0.17,0.1,0.58 ± 0.069,fraction unbound at 24 h [4]: 0.085 ± 0.012
COc1ncnc(NS(=O)(=O)c2ccc(N)cc2)c1OC [Sulfadoxine],–,–,0.05-0.1,–,–,0.036 ± 0.001,0.025,0.93 ± 0.086,pKa ([1]; acidic pKa (A)): 6.2 ± 0.01
COc1cc(C)c2c(Oc3cccc(C(F)(F)F)c3)c(OC)cc(NC(C)CCCN)c2n1 (stereo not drawn) [Tafenoquine],–,–,< 0.005,8.7 ± 0.09,4.24,0.11,< 0.0007,0.002 ± 0.0003,"logD [2, 7]: 4.24; fraction unbound at […] [3, 8]: 0.0007; fraction unbound at 24 h [4]: 0.0007 ± 0.00017"
